Tests used:
[1] = target: T1, C5a anaphylatoxin chemotactic receptor 1 (Homo sapiens, UniProt P21730); assay: Antagonist activity at human recombinant C5a receptor in U937 cells assessed as inhibition of C5a-induced calcium mobilization by FLIPR assay; type: functional, cell-based, U-937
T1 sequence (P21730 whole entry): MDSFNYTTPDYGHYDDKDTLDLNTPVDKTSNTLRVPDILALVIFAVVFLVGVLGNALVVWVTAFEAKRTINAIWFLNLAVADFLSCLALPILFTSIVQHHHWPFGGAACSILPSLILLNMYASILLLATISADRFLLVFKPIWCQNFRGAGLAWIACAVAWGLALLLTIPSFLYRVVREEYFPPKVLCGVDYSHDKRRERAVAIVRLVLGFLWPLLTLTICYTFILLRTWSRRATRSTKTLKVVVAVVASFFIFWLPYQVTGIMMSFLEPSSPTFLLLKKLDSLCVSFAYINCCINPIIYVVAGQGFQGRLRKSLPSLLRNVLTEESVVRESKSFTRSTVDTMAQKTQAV

[2] = target: T1, C5a anaphylatoxin chemotactic receptor 1; assay: Displacement of [125I]C5a from human recombinant C5a receptor in U937 cells; type: cell-based, U-937
Rattus norvegicus [3] = assay: AUC in rat at 10 mg/kg, po; type: ADME, organism-based, Plasma; design: dose 10 mg/kg, route oral; conditions: in vivo
[4] = Clearance in rat at 2 mg/kg, iv; type: ADME, organism-based; design: dose 2 mg/kg, route intravenous; conditions: in vivo
[5] = Oral bioavailability in rat at 10 mg/kg; type: ADME, organism-based; conditions: in vivo
[6] = Half life in rat at 10 mg/kg, po; type: ADME, organism-based; design: dose 10 mg/kg, route oral; conditions: in vivo
[7] = Volume of distribution at steady state in rat at 2 mg/kg, iv; type: ADME, organism-based; design: dose 2 mg/kg, route intravenous; conditions: in vivo, read-out: Vdss
[8] = Half life in rat at 2 mg/kg, iv; type: ADME, organism-based; design: dose 2 mg/kg, route intravenous; conditions: in vivo
Rattus norvegicus [9] = assay: Cmax in rat at 10 mg/kg, po; type: ADME, organism-based; design: dose 10 mg/kg, route oral; conditions: in vivo

SMILES	IC50 [1]	other results
CCc1cccc(CC)c1-c1cc(OC)c2c(n1)CCCC2Nc1cc(F)ccc1C (stereo unspecified)	1400 nM	–
CCc1cccc(CC)c1-c1cc(OC)c2c(n1)CCCC2Nc1cc(-c2ccccc2)ccc1C (stereo unspecified)	2500 nM	–
CCc1cccc(CC)c1-c1cc(OC)c2c(n1)CCCC2Nc1cc(OC)ccc1-c1ccccc1 (stereo unspecified)	> 10000 nM	–
CCc1cccc(CC)c1-c1cc(OC)c2c(n1)CCCC2Nc1cc(O)ccc1C (stereo unspecified)	> 10000 nM	–
CCc1cccc(CC)c1-c1cc(OC)c2c(n1)CCCC2Nc1ccc(OC)cc1C (stereo unspecified)	2400 nM	–
CCc1cccc(CC)c1-c1cc(OC)c2c(n1)CCCC2Nc1ccccc1CCO (stereo unspecified)	–	Ki [2]: 21 nM
CCc1cccc(CC)c1-c1cc(OC)c2c(n1)CCCC2Nc1ccccc1C(C)=O (stereo unspecified)	> 10000 nM	–
CCc1cccc(CC)c1-c1cc(OC)c2c(n1)CCCC2Nc1ccccc1C(=O)OC (stereo unspecified)	> 10000 nM	–
CCc1cccc(CC)c1-c1cc(OC)c2c(n1)CCCC2Nc1cc(OC)ccc1C (stereo unspecified)	140 nM	AUC (Rattus norvegicus [3]): 700 ng·h/mL; clearance [4]: 21 mL/min/kg; bioavailability [5]: 21%; half-life [6]: 318 min; Vd [7]: 4.5 L/kg; half-life [8]: 378 min; Cmax (Rattus norvegicus [9]): 0.29 µg/mL
CCc1cccc(CC)c1-c1cc(OC)c2c(n1)CCCC2Nc1ccccc1CO (stereo unspecified)	120 nM	–
CCc1cccc(CC)c1-c1cc(OC)c2c(n1)CCCC2Nc1cc(C)ccc1C (stereo unspecified)	430 nM	–
CCc1cccc(CC)c1-c1cc(OC)c2c(n1)CCCC2Nc1cc(CO)ccc1C (stereo unspecified)	> 10000 nM	–
CCc1cccc(CC)c1-c1cc(OC)c2c(n1)CCCC2Nc1ccccc1C(N)=O (stereo unspecified)	> 10000 nM	–
CCc1cccc(CC)c1-c1cc(OC(C)C)c2c(n1)CCCC2Nc1ccccc1CCO (racemic)	7 nM	–
CCc1cccc(CC)c1-c1cc(OC)c2c(n1)CCCC2N(C)c1cc(OC)ccc1OC (racemic)	2600 nM	–
COc1cc(-c2c(C)cccc2C)nc2c1C(N(C)c1c(C)cccc1C)CCC2 (racemic)	> 10000 nM	–
COc1cccc(N(C)C2CCCc3nc(-c4c(C)cccc4C)cc(OC)c32)c1C (racemic)	> 10000 nM	–
CCc1cccc(CC)c1-c1cc(OC)c2c(n1)CCCC2N(C)c1cc(-c2ccccc2)ccc1C (racemic)	> 10000 nM	–
CCc1cccc(CC)c1-c1cc(OC)c2c(n1)CCCC2N(C)c1cc(Cl)ccc1C (racemic)	2600 nM	–
